Counter-ions that a name gives are not always drawn. Like-named read-outs stand apart in the source and are kept apart here.
Legend:
[1] = system: NCI-H292 lung cancer cells; assay: FDA drug screening, complete media vs cholesterol-free media without statin (TABLE 1); type: cell-based, human
[2] = system: NCI-H292 lung cancer cells; assay: FDA drug screening, complete media vs cholesterol-free media with simvastatin (TABLE 2); type: cell-based, human
[3] = NCI-H292 cells, cholesterol-free media without statin
[4] = complete vs cholesterol-free media, greater than 0 enhanced anti-cancer activity, about 0 neutral, below 0 antagonists
[5] = NCI-H292 cells, drug in cholesterol-free media with simvastatin 0.04 μM
[6] = NCI-H292 cells, drug in complete media
[7] = complete media vs cholesterol-free media + simvastatin (0.04 μM), >0 enhanced anti-cancer activity, about 0 neutral, <0 antagonist
[8] = NCI-H292 cells, cholesterol-free media with simvastatin 0.04 μM, FDA drug library screen (TABLE 2)
[9] = NCI-H292 cells, complete media, FDA drug library screen (TABLE 2)
[10] = complete media minus cholesterol-free media + simvastatin (0.04 μM), >0 enhanced anti-cancer activity, about 0 neutral, <0 antagonist
[11] = Complete minus Cholesterol-free, greater than 0 enhanced anti-cancer activity, about 0 neutral, below 0 antagonist
[12] = NCI-H292 cells, FDA drug library screen, cholesterol-free media without statin
[13] = NCI-H292 cells, FDA drug library screen, complete media
[14] = Complete minus Cholesterol-free, >0 enhanced anti-cancer activity, about 0 neutral, <0 antagonist
[15] = NCI-H292 cells, cholesterol-free media without statin, FDA drug library screen
[16] = NCI-H292 cells, complete media, FDA drug library screen
[17] = NCI-H292 cells, FDA drug library screen, cholesterol-free media with simvastatin 0.04 μM
[18] = complete vs cholesterol-free media, >0 enhanced anti-cancer activity, about 0 neutral, <0 antagonist
[19] = Complete minus Cholesterol-free, greater than 0 enhanced anti-cancer activity, about 0 neutral, below 0 antagonists
[20] = NCI-H292 cells in cholesterol-free media without statin
[21] = NCI-H292 cells in complete media
[22] = complete media minus cholesterol-free media + simvastatin, >0 enhanced anti-cancer activity, about 0 neutral, <0 antagonist
[23] = NCI-H292 cells, cholesterol-free media with simvastatin 0.04 μM, cell growth value in FDA drug screen
[24] = NCI-H292 cells, complete media, cell growth value in FDA drug screen

`COc1cc2c(cc1OC)C1CC(=O)C(CC(C)C)CN1CC2` (stereo not drawn) [Tetrabenazine] gave a Cholesterol-free [1, 3] of 1.615, a Complete ([1]; NCI-H292 cells, complete media) of 1.162 and a Difference [1, 4] of −0.45. The “Cholesterol-free media + simvastatin (0.04 μM)” value [2, 5] was 1.249, the “Complete Media” value [2, 6] was 1.01 and the Difference [2, 7] was −0.24.

For `CN(C)[C@@H]1C(O)=C(C(N)=O)C(=O)[C@@]2(O)C(O)=C3C(=O)c4c(O)cccc4[C@@](C)(O)[C@H]3C[C@@H]12` [Tetracycline (hydrochloride)], the Cholesterol-free [1, 3] was 1.387, the Complete ([1]; NCI-H292 cells, complete media) was 0.93 and the Difference [1, 4] was −0.46. For the same compound, the “Cholesterol-free media + simvastatin (0.04 μM)” value [2, 8] was 0.7005, the “Complete Media” value [2, 9] was 0.7002 and the Difference [2, 10] was 0.00.

Work on `C[C@H](O)[C@H](O)[C@H]1CNc2nc(N)[nH]c(=O)c2N1` [Tetrahydrobiopterin] yielded a Difference [1, 11] of −0.10, a Cholesterol-free [1, 12] of 0.9498 and a Complete [1, 13] of 0.8545. For the same compound, the “Cholesterol-free media + simvastatin (0.04 μM)” value ([2]; NCI-H292 cells, FDA library drug in cholesterol-free media with simvastatin 0.04 μM) was 1.389, the “Complete Media” value ([2]; NCI-H292 cells, FDA library drug in complete media) was 1.025 and the Difference [2, 7] was −0.36.

`COc1cc2c(cc1OC)[C@@H]1Cc3ccc(OC)c(OC)c3CN1CC2` [Tetrahydropalmatine] gave a Difference [1, 11] of −0.19, a Cholesterol-free [1, 12] of 1.084 and a Complete [1, 13] of 0.8984. For the same compound, the “Cholesterol-free media + simvastatin (0.04 μM)” value [2, 5] was 0.9937, the “Complete Media” value [2, 6] was 0.7686 and the Difference [2, 7] was −0.23.

In the case of `c1ccc2c(c1)CCCC2C1=NCCN1` (stereo not drawn) [Tetrahydrozoline (hydrochloride)], the Difference [1, 14] is reported as −0.03, the Cholesterol-free [1, 15] is reported as 0.9833 and the Complete [1, 16] is reported as 0.9541. The “Cholesterol-free media + simvastatin (0.04 μM)” value [2, 17] was 1.06, the “Complete Media” value [2, 13] was 0.9332 and the Difference [2, 7] was −0.13.

Compound `c1ccc(C2CN3CCSC3=N2)cc1` (stereo not drawn) [Tetramisole (hydrochloride)] has a Cholesterol-free [1, 3] of 1.362, a Complete ([1]; NCI-H292 cells, complete media) of 0.9185 and a Difference [1, 4] of −0.44. The “Cholesterol-free media + simvastatin (0.04 μM)” value [2, 8] was 1.011, the “Complete Media” value [2, 9] was 0.9757 and the Difference [2, 10] was −0.04.

Compound `COc1ccc2cc1Oc1ccc(cc1)C[C@H]1c3cc(c(OC)cc3CCN1C)Oc1c(OC)c(OC)cc3c1[C@H](C2)N(C)CC3` [Tetrandrine] has a Cholesterol-free [1, 15] of 0.9522, a Complete [1, 16] of 1.143 and a Difference [1, 18] of 0.19. The “Cholesterol-free media + simvastatin (0.04 μM)” value [2, 5] was 1.133, the “Complete Media” value [2, 6] was 0.9661 and the Difference [2, 7] was −0.17.

Work on `CC(C)(CO)c1cc2cc(NC(=O)C3(c4ccc5c(c4)OC(F)(F)O5)CC3)c(F)cc2n1C[C@@H](O)CO` [Tezacaftor] yielded a Difference [1, 19] of −0.63, a Cholesterol-free [1, 20] of 1.488 and a Complete [1, 21] of 0.8597. For the same compound, the “Cholesterol-free media + simvastatin (0.04 μM)” value [2, 8] was 1.227, the “Complete Media” value [2, 9] was 1.187 and the Difference [2, 10] was −0.04.

Compound `O=C1CCC(N2C(=O)c3ccccc3C2=O)C(=O)N1` (stereo not drawn) [Thalidomide] has a Difference [1, 19] of −0.92, a Cholesterol-free [1, 20] of 1.865 and a Complete [1, 21] of 0.9496. The “Cholesterol-free media + simvastatin (0.04 μM)” value [2, 5] was 1.184, the “Complete Media” value [2, 6] was 1.013 and the Difference [2, 7] was −0.17.

With `Cn1c(=O)c2[nH]cnc2n(C)c1=O` [Theophylline] the Cholesterol-free [1, 3] was 1.592, the Complete ([1]; NCI-H292 cells, complete media) was 1.176 and the Difference [1, 4] was −0.42. For the same compound, the “Cholesterol-free media + simvastatin (0.04 μM)” value [2, 17] was 1.182, the “Complete Media” value [2, 13] was 1.026 and the Difference [2, 7] was −0.16.

`c1ccc2[nH]c(-c3cscn3)nc2c1` [Thiabendazole] gave a Cholesterol-free [1, 15] of 0.802, a Complete [1, 16] of 1.484 and a Difference [1, 18] of 0.68. For the same compound, the “Cholesterol-free media + simvastatin (0.04 μM)” value [2, 17] was 0.9537, the “Complete Media” value [2, 13] was 1.187 and the Difference [2, 22] was 0.23.

For `Cc1ncc(C[n+]2csc(CCO)c2C)c(N)n1` [Thiamine (hydrochloride)], the Difference [1, 14] was −0.20, the Cholesterol-free [1, 3] was 1.324 and the Complete ([1]; NCI-H292 cells, complete media) was 1.125. The “Cholesterol-free media + simvastatin (0.04 μM)” value [2, 23] was 1.098, the “Complete Media” value [2, 24] was 1.117 and the Difference [2, 22] was 0.02.

Work on `Cc1ncc(C[n+]2csc(CCO)c2C)c(N)n1` [Thiamine monochloride] yielded a Difference [1, 14] of −0.23, a Cholesterol-free [1, 3] of 0.9486 and a Complete ([1]; NCI-H292 cells, complete media) of 0.7138. For the same compound, the “Cholesterol-free media + simvastatin (0.04 μM)” value [2, 17] was 1.042, the “Complete Media” value [2, 13] was 0.9007 and the Difference [2, 7] was −0.14.

`CS(=O)(=O)c1ccc([C@@H](O)[C@@H](CO)NC(=O)C(Cl)Cl)cc1` [Thiamphenicol] gave a Cholesterol-free [1, 15] of 0.8085, a Complete [1, 16] of 0.9105 and a Difference [1, 18] of 0.10. The “Cholesterol-free media + simvastatin (0.04 μM)” value [2, 17] was 0.911, the “Complete Media” value [2, 13] was 0.7958 and the Difference [2, 7] was −0.12.

In the case of `S=P(N1CC1)(N1CC1)N1CC1` [Thio-TEPA], the Cholesterol-free [1] is reported as 0.9267, the Complete [1] is reported as 0.7941 and the Difference [1] is reported as −0.13. For the same compound, the “Cholesterol-free media + simvastatin (0.04 μM)” value [2] was 0.6864, the “Complete Media” value [2] was 0.8177 and the Difference [2] was 0.13.

`CSc1ccc2c(c1)N(CCC1CCCCN1C)c1ccccc1S2` (stereo not drawn) [Thioridazine (hydrochloride)] gave a Cholesterol-free [1, 15] of 1.045, a Complete [1, 16] of 1.124 and a Difference [1, 18] of 0.08. The “Cholesterol-free media + simvastatin (0.04 μM)” value [2, 17] was 1.073, the “Complete Media” value [2, 13] was 0.9459 and the Difference [2, 7] was −0.13.

For `CCCCCCCCCCCCCCCC[N+](C)(C)CCN(Cc1ccc(OC)cc1)c1ncccn1.[Br-]` [Thonzonium (bromide)], the Difference [1, 11] was −0.13, the Cholesterol-free [1, 12] was 0.179 and the Complete [1, 13] was 0.05155. The “Cholesterol-free media + simvastatin (0.04 μM)” value [2, 17] was 0.2494, the “Complete Media” value [2, 13] was 0.5638 and the Difference [2, 22] was 0.31.

With `Cc1ccc(C(C)C)c(O)c1` [Thymol] the Cholesterol-free [1, 3] was 1.354, the Complete ([1]; NCI-H292 cells, complete media) was 1.041 and the Difference [1, 4] was −0.31. The “Cholesterol-free media + simvastatin (0.04 μM)” value [2, 5] was 1.184, the “Complete Media” value [2, 6] was 0.956 and the Difference [2, 7] was −0.23.

Work on `Cc1ccsc1C(=CCCN1CCC[C@@H](C(=O)O)C1)c1sccc1C` [Tiagabine (hydrochloride)] yielded a Difference [1, 14] of −0.25, a Cholesterol-free [1, 3] of 1.406 and a Complete ([1]; NCI-H292 cells, complete media) of 1.159. For the same compound, the “Cholesterol-free media + simvastatin (0.04 μM)” value [2, 23] was 0.8465, the “Complete Media” value [2, 24] was 0.9752 and the Difference [2, 22] was 0.13.

For `CCCSc1nc(N[C@@H]2C[C@H]2c2ccc(F)c(F)c2)c2nnn([C@@H]3C[C@H](OCCO)[C@@H](O)[C@H]3O)c2n1` [Ticagrelor], the Difference [1, 19] was −0.72, the Cholesterol-free [1, 20] was 1.589 and the Complete [1, 21] was 0.8706. The “Cholesterol-free media + simvastatin (0.04 μM)” value [2, 17] was 0.854, the “Complete Media” value [2, 13] was 1.275 and the Difference [2, 22] was 0.42.

With `CC1(C)S[C@@H]2[C@H](NC(=O)[C@H](C(=O)[O-])c3ccsc3)C(=O)N2[C@H]1C(=O)[O-].[Na+].[Na+]` [Ticarcillin (disodium)] the Cholesterol-free [1, 15] was 0.7001, the Complete [1, 16] was 1.43 and the Difference [1, 18] was 0.73. The “Cholesterol-free media + simvastatin (0.04 μM)” value [2, 17] was 1.294, the “Complete Media” value [2, 13] was 1.207 and the Difference [2, 7] was −0.09.

`Clc1ccccc1CN1CCc2sccc2C1` [Ticlopidine (hydrochloride)] was tested, and the Difference [1, 19] was −0.88, the Cholesterol-free [1, 20] was 1.64 and the Complete [1, 21] was 0.7613. The “Cholesterol-free media + simvastatin (0.04 μM)” value [2, 23] was 1.416, the “Complete Media” value [2, 24] was 1.478 and the Difference [2, 22] was 0.06.

In the case of `CN(C)c1cc(NC(=O)CNC(C)(C)C)c(O)c2c1C[C@H]1C[C@H]3[C@H](N(C)C)C(O)=C(C(N)=O)C(=O)[C@@]3(O)C(O)=C1C2=O` [Tigecycline (tetramesylate)], the Difference [1, 14] is reported as 0.02, the Cholesterol-free [1, 15] is reported as 0.1191 and the Complete [1, 16] is reported as 0.1424. For the same compound, the “Cholesterol-free media + simvastatin (0.04 μM)” value [2, 17] was 0.4075, the “Complete Media” value [2, 13] was 0.333 and the Difference [2, 7] was −0.07.

Source: US20250144067A1, “PERSONALIZED STARVATION THERAPY FOR CANCER” (Faeth Therapeutics, Inc., priority 2021, published 2025)
